Source: ChEMBL document CHEMBL4257221, “Peptides comprising non-natural amino acids and methods of making and using the same” (2016)
Numbered stars: 1 amine (or outer) side, 2 acyl side, 3 side chain; on linkers, the order of the positions; unused ones are H or OH. Square brackets hold non-standard residues; d marks the D form. Peptide text beside a SMILES is read from it. ξ: configuration not given here. X1 = O=C([C@H]1CCC[C@@H]1N[*:1])[*:2]; X2 = O=C([C@H]1CNC[C@@H]1N[*:1])[*:2]; β3hN = NC(=O)C[C@H](N)CC(=O)O; β3hV = CC(C)[C@H](N)CC(=O)O; ξβ3hD = NC(CC(=O)O)CC(=O)O; ξβ3hN = NC(=O)CC(N)CC(=O)O; ξβ3hL = CC(C)CC(N)CC(=O)O; ξβ3hK = NCCCCC(N)CC(=O)O; ξβ3hT = CC(O)C(N)CC(=O)O; ξβ3hV = CC(C)C(N)CC(=O)O; ξβ3hS = NC(CO)CC(=O)O; βAla = NCCC(=O)O

How the values were obtained:
[1] = molecular target: T1, Vasoactive intestinal polypeptide receptor 1 (Homo sapiens, UniProt P32241); test: Agonist activity at human VIPR1 expressed in CHOK1 cells assessed as intracellular cAMP accumulation after 60 mins by PathHunter assay; assay type: functional, cell-based
T1 sequence (P32241 whole entry): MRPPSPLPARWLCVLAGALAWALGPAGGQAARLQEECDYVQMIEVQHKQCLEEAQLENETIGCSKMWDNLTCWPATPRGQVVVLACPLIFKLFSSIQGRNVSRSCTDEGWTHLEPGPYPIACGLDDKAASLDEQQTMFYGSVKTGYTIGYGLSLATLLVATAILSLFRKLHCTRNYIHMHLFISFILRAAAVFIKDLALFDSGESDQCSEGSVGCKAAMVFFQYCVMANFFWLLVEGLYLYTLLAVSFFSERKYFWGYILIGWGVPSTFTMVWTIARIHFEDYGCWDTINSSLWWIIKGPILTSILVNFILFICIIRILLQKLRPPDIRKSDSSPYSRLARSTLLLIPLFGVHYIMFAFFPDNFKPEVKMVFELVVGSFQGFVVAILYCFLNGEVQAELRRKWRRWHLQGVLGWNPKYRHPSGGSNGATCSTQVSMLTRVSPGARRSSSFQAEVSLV

[2] = molecular target: T2, Vasoactive intestinal polypeptide receptor 2 (Homo sapiens, UniProt P41587); test: Agonist activity at human VIPR2 expressed in CHOK1 cells assessed as intracellular cAMP accumulation after 60 mins by PathHunter assay; assay type: functional, cell-based
T2 sequence (P41587 whole entry): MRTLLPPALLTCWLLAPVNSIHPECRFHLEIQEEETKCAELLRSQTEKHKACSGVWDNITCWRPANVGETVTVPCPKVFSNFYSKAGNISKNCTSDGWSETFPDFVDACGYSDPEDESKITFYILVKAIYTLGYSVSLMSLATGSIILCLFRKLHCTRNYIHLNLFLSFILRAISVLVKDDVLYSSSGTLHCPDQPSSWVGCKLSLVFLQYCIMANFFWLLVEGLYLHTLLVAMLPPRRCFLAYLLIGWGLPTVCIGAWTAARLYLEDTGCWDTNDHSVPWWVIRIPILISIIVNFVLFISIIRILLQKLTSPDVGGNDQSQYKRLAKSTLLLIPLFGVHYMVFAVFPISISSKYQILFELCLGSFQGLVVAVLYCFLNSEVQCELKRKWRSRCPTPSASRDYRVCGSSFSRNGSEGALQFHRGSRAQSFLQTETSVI

SMILES | EC50 [1] | EC50 [2]
CC[C@H](C)[C@H](NC(=O)[C@H](C)NC(=O)[C@H](CC(N)=O)NC(=O)CC(CC(C)C)NC(=O)[C@H](Cc1ccc(O)cc1)NC(=O)[C@H](CCCCN)NC(=O)[C@H](CCCCN)NC(=O)CC(NC(=O)[C@H](C)NC(=O)[C@H](CC(C)C)NC(=O)[C@H](CCC(N)=O)NC(=O)CC(CCCCN)NC(=O)[C@H](CCCNC(=N)N)NC(=O)[C@H](CC(C)C)NC(=O)[C@H](CCCNC(=N)N)NC(=O)CC(NC(=O)[C@H](Cc1ccc(O)cc1)NC(=O)CC(CC(N)=O)NC(=O)[C@H](CC(=O)O)NC(=O)[C@@H](NC(=O)[C@H](Cc1ccccc1)NC(=O)CC(NC(=O)[C@H](C)NC(=O)[C@H](CC(=O)O)NC(=O)CC(CO)NC(=O)[C@@H](N)Cc1cnc[nH]1)C(C)C)[C@@H](C)O)C(C)O)C(C)C)C(=O)NC(CC(=O)N[C@@H](CC(N)=O)C(=O)O)CC(C)C (stereo partly drawn) (H-H[ξβ3hS]DA[ξβ3hV]FTD[ξβ3hN]Y[ξβ3hT]RLR[ξβ3hK]QLA[ξβ3hV]KKY[ξβ3hL]NAI[ξβ3hL]N-OH) | 298 µM | 0.503 µM
CC(=O)N[C@@H](Cc1cnc[nH]1)C(=O)N[C@@H](CO)C(=O)N[C@@H](CC(=O)O)C(=O)N[C@@H](C)C(=O)N[C@H](C(=O)N[C@@H](Cc1ccccc1)C(=O)N[C@H](C(=O)N[C@@H](CCC(=O)O)C(=O)N[C@@H](CC(N)=O)C(=O)N[C@@H](Cc1ccc(O)cc1)C(=O)N[C@H](C(=O)N[C@@H](CCCCN)C(=O)N[C@@H](CC(C)C)C(=O)N[C@@H](CCCNC(=N)N)C(=O)N[C@@H](CCCCN)C(=O)N[C@@H](CCC(N)=O)C(=O)N[C@@H](CC(C)C)C(=O)N[C@@H](C)C(=O)N[C@@H](C)C(=O)N[C@H]1CNC[C@@H]1C(=O)N[C@@H](CCCCN)C(=O)N[C@@H](Cc1ccc(O)cc1)C(=O)N[C@H]1CCC[C@@H]1C(=O)N[C@@H](CC(N)=O)C(=O)N[C@@H](CC(=O)O)C(=O)N[C@@H](CC(C)C)C(=O)NC(CCCCN)CC(=O)N[C@@H](CCCCN)C(=O)NCC(=O)NCCC(=O)N[C@H](C(=O)O)[C@@H](C)O)[C@@H](C)O)[C@@H](C)O)C(C)C (stereo partly drawn) (Ac-HSDAVFTENYTKLRKQLAA[X2]KY[X1]NDL[ξβ3hK]KG[βAla]T-OH) | > 1 µM | 0.000963 µM
CC[C@H](C)[C@H](NC(=O)[C@H](C)NC(=O)[C@H](CC(N)=O)NC(=O)CC(CC(C)C)NC(=O)[C@H](Cc1ccc(O)cc1)NC(=O)[C@H](CCCCN)NC(=O)[C@H](CCCCN)NC(=O)CC(NC(=O)[C@H](C)NC(=O)[C@H](CC(C)C)NC(=O)[C@H](CCC(N)=O)NC(=O)CC(CCCCN)NC(=O)[C@H](CCCNC(=N)N)NC(=O)[C@H](CC(C)C)NC(=O)[C@H](CCCNC(=N)N)NC(=O)CC(NC(=O)[C@H](Cc1ccc(O)cc1)NC(=O)[C@H](CC(N)=O)NC(=O)[C@H](CC(=O)O)NC(=O)[C@@H](NC(=O)[C@H](Cc1ccccc1)NC(=O)CC(NC(=O)[C@H](C)NC(=O)[C@H](CC(=O)O)NC(=O)[C@@H](Cc1ccccc1)NC(=O)[C@@H](N)Cc1cnc[nH]1)C(C)C)[C@@H](C)O)C(C)O)C(C)C)C(=O)NC(CC(=O)N[C@@H](CC(N)=O)C(=O)O)CC(C)C (stereo partly specified) | 0.0712 µM | 0.0503 µM
CC[C@H](C)[C@H](NC(=O)[C@H](C)NC(=O)[C@H](CC(N)=O)NC(=O)CC(CC(C)C)NC(=O)[C@H](Cc1ccc(O)cc1)NC(=O)[C@H](CCCCN)NC(=O)[C@H](CCCCN)NC(=O)CC(NC(=O)[C@H](C)NC(=O)[C@H](CC(C)C)NC(=O)[C@H](CCC(N)=O)NC(=O)CC(CCCCN)NC(=O)[C@H](CCCNC(=N)N)NC(=O)[C@H](CC(C)C)NC(=O)[C@H](CCCNC(=N)N)NC(=O)CC(NC(=O)[C@H](Cc1ccc(O)cc1)NC(=O)[C@H](CC(N)=O)NC(=O)[C@H](CC(=O)O)NC(=O)CC(NC(=O)[C@H](Cc1ccccc1)NC(=O)[C@@H](NC(=O)[C@H](C)NC(=O)CC(CC(=O)O)NC(=O)[C@H](CO)NC(=O)[C@@H](N)Cc1cnc[nH]1)C(C)C)C(C)O)C(C)O)C(C)C)C(=O)NC(CC(=O)N[C@@H](CC(N)=O)C(=O)O)CC(C)C (stereo partly drawn) (H-HS[ξβ3hD]AVF[ξβ3hT]DNY[ξβ3hT]RLR[ξβ3hK]QLA[ξβ3hV]KKY[ξβ3hL]NAI[ξβ3hL]N-OH) | > 1 µM | > 1 µM
CC(=O)N[C@@H](Cc1cnc[nH]1)C(=O)N[C@@H](CO)C(=O)N[C@@H](CC(=O)O)C(=O)N[C@@H](C)C(=O)N[C@H](C(=O)N[C@@H](Cc1ccccc1)C(=O)N[C@H](C(=O)N[C@@H](CCC(=O)O)C(=O)N[C@@H](CC(N)=O)C(=O)N[C@@H](Cc1ccc(O)cc1)C(=O)N[C@H](C(=O)N[C@@H](CCCCN)C(=O)N[C@@H](CC(C)C)C(=O)N[C@@H](CCCNC(=N)N)C(=O)N[C@@H](CCCCN)C(=O)N[C@@H](CCC(N)=O)C(=O)N[C@@H](CC(C)C)C(=O)N[C@@H](C)C(=O)N[C@H]1CCC[C@@H]1C(=O)N[C@@H](CCCCN)C(=O)N[C@@H](CCCCN)C(=O)N[C@@H](Cc1ccc(O)cc1)C(=O)N[C@H]1CCC[C@@H]1C(=O)N[C@@H](CC(N)=O)C(=O)N[C@@H](CC(=O)O)C(=O)NC(CC(=O)N[C@@H](CCCCN)C(=O)N[C@@H](CCCCN)C(=O)NCC(=O)NCCC(=O)N[C@H](C(=O)O)[C@@H](C)O)CC(C)C)[C@@H](C)O)[C@@H](C)O)C(C)C (stereo partly drawn) (Ac-HSDAVFTENYTKLRKQLA[X1]KKY[X1]ND[ξβ3hL]KKG[βAla]T-OH) | 0.00909 µM | 0.104 µM
CC(=O)N[C@@H](Cc1cnc[nH]1)C(=O)N[C@@H](CO)C(=O)N[C@@H](CC(=O)O)C(=O)N[C@@H](C)C(=O)N[C@H](C(=O)N[C@@H](Cc1ccccc1)C(=O)N[C@H](C(=O)N[C@@H](CCC(=O)O)C(=O)N[C@@H](CC(N)=O)C(=O)N[C@@H](Cc1ccc(O)cc1)C(=O)N[C@H](C(=O)N[C@@H](CCCCN)C(=O)N[C@@H](CC(C)C)C(=O)N[C@@H](CCCNC(=N)N)C(=O)N[C@@H](CCCCN)C(=O)N[C@@H](CCC(N)=O)C(=O)N[C@H]1CCC[C@@H]1C(=O)N[C@@H](C)C(=O)N[C@@H](C)C(=O)N[C@@H](CCCCN)C(=O)N[C@H]1CNC[C@@H]1C(=O)N[C@@H](Cc1ccc(O)cc1)C(=O)N[C@@H](CC(C)C)C(=O)N[C@H]1CCC[C@@H]1C(=O)N[C@@H](CC(=O)O)C(=O)N[C@@H](CC(C)C)C(=O)N[C@@H](CCCCN)C(=O)NC(CCCCN)CC(=O)NCC(=O)NCC(=O)N[C@H](C(=O)O)[C@@H](C)O)[C@@H](C)O)[C@@H](C)O)C(C)C (stereo partly drawn) (Ac-HSDAVFTENYTKLRKQ[X1]AAK[X2]YL[X1]DLK[ξβ3hK]GGT-OH) | 0.00952 µM | 0.000422 µM
CC(=O)N[C@@H](Cc1cnc[nH]1)C(=O)N[C@H]1CCC[C@@H]1C(=O)N[C@@H](CC(=O)O)C(=O)N[C@@H](C)C(=O)N[C@H](CC(=O)N[C@@H](Cc1ccccc1)C(=O)N[C@H](C(=O)N[C@@H](CCC(=O)O)C(=O)N[C@@H](CC(N)=O)CC(=O)N[C@@H](Cc1ccc(O)cc1)C(=O)N[C@H](C(=O)N[C@@H](CCCCN)C(=O)N[C@@H](CC(C)C)C(=O)N[C@@H](CCCNC(=N)N)C(=O)N[C@@H](CCCCN)C(=O)N[C@@H](CCC(N)=O)C(=O)N[C@@H](CC(C)C)C(=O)N[C@@H](C)C(=O)N[C@@H](C)C(=O)N[C@H]1CNC[C@@H]1C(=O)N[C@@H](CCCCN)C(=O)N[C@@H](Cc1ccc(O)cc1)C(=O)N[C@H]1CCC[C@@H]1C(=O)N[C@@H](CC(N)=O)C(=O)N[C@@H](CC(=O)O)C(=O)N[C@@H](CC(C)C)C(=O)NC(CCCCN)CC(=O)N[C@@H](CCCCN)C(=O)NCC(=O)NCCC(=O)N[C@H](C(=O)O)[C@@H](C)O)[C@@H](C)O)[C@@H](C)O)C(C)C (stereo partly drawn) (Ac-H[X1]DA[β3hV]FTE[β3hN]YTKLRKQLAA[X2]KY[X1]NDL[ξβ3hK]KG[βAla]T-OH) | 1.42 µM | 0.000859 µM
CC[C@H](C)[C@H](NC(=O)[C@H](C)NC(=O)[C@H](CC(N)=O)NC(=O)CC(CC(C)C)NC(=O)[C@H](Cc1ccc(O)cc1)NC(=O)[C@H](CCCCN)NC(=O)[C@H](CCCCN)NC(=O)CC(NC(=O)[C@H](C)NC(=O)[C@H](CC(C)C)NC(=O)[C@H](CCC(N)=O)NC(=O)CC(CCCCN)NC(=O)[C@H](CCCNC(=N)N)NC(=O)[C@H](CC(C)C)NC(=O)[C@H](CCCNC(=N)N)NC(=O)CC(NC(=O)[C@H](Cc1ccc(O)cc1)NC(=O)[C@H](CC(N)=O)NC(=O)[C@H](CC(=O)O)NC(=O)[C@@H](NC(=O)[C@H](Cc1ccccc1)NC(=O)[C@@H](NC(=O)[C@H](C)NC(=O)[C@H](CC(=O)O)NC(=O)[C@@H](Cc1ccccc1)NC(=O)[C@@H](N)Cc1cnc[nH]1)C(C)C)[C@@H](C)O)C(C)O)C(C)C)C(=O)NC(CC(=O)N[C@@H](CC(N)=O)C(=O)O)CC(C)C (stereo partly specified) | 619 µM | 0.344 µM
